The target of the assay is T1, FL hMALT1 enzyme (Homo sapiens, UniProt Q9UDY8).
T1 sequence (Q9UDY8 1-824): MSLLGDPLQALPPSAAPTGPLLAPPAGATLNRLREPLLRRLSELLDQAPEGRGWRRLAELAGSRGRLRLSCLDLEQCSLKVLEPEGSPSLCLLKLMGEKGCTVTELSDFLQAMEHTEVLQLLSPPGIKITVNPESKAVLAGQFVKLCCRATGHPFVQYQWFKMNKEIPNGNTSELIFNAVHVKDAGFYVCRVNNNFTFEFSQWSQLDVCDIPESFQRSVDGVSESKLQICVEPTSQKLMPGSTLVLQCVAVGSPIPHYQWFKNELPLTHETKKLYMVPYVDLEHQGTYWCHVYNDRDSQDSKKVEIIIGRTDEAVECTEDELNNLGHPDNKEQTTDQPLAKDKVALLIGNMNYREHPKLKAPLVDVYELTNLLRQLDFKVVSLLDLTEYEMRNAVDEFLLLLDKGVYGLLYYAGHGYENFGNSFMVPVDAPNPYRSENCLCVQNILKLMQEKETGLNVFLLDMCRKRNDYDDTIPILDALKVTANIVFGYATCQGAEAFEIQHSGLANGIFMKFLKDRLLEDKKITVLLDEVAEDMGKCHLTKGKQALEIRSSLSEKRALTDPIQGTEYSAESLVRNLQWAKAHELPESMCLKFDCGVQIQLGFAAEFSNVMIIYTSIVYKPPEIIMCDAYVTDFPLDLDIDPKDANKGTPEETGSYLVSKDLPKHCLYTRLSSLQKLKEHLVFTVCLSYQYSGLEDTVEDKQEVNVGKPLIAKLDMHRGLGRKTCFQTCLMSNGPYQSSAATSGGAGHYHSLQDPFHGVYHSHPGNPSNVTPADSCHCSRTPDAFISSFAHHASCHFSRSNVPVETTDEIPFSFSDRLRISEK
The assay is described as follows: biochemical.

SMILES strings stand for the structures.

The results in this text go back to patent publication US20260184687A1, “DIHYDROINDENE DERIVATIVES AS MALT1 INHIBITORS” (C4X Discovery Limited, priority 2022, published 2026).

In general, IC50 refers to the concentration that inhibits the measured activity by half. A high value points to weaker potency.
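Also: Cell-free protease assay: enzyme preincubated with compound 30 min at room temperature, then cleavage of fluorogenic Ac-LVSR-AMC substrate (100 µM) tracked by fluorescence (ex 360/em 460 nm).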

Turning to `CN(C(=O)C1CCS(=O)(=O)CC1)[C@@H](c1ccc(NC2Cc3cc(Cl)cc(Cl)c3C2)cn1)C(F)(F)F` (single isomer, unassigned) [Example 282], the IC50 is 340 nM.
On to `CN(C(=O)[C@@H]1CC[C@H](NC(=O)C(F)(F)F)C1)[C@@H](c1ccc(N[C@H]2Cc3ccccc3C2(C)C)cn1)C(F)(F)F` [Example 184, (1R,3S)—N—((S)-1-(5-(((S)-1,1-Dimethyl-2,3-dihydro-1H-inden-2-yl)amino)pyridin-2-yl)-2,2,2-trifluoroethyl)-N-methyl-3-(2,2,2-trifluoroacetamido)cyclopentane-1-carboxamide], for which 150 nM corresponded to half-maximal inhibition (IC50).
`CN(C(=O)CNS(C)(=O)=O)[C@@H](c1ccc(NC2Cc3ccc(Cl)c(Cl)c3C2)cn1)C(F)(F)F` (single isomer, unassigned) [Example 381] came in with an IC50 of 77 nM.
Then `CN(C(=O)CN1CCCS1(=O)=O)[C@@H](c1ccc(NC2Cc3ccc(Cl)c(F)c3C2)cn1)C(F)(F)F` (single isomer, unassigned) [Example 362], with 280 nM; and `Cc1c(Cl)ccc2c1CC(Nc1ccc([C@H](N(C)C(=O)C3CCS(=O)(=O)CC3)C(F)(F)F)nc1)C2` (single isomer, unassigned) [Example 373], with 490 nM.
`CN(C(=O)C1CCS(=O)(=O)CC1)[C@@H](c1ccc(NC2Cc3ccc(F)cc3C2)cn1)C(F)(F)F` (single isomer, unassigned) [Example 259] registered a half-maximal inhibitory concentration (IC50) of 180 nM.
For `CN(C(=O)C1COCC(=O)N1)[C@@H](c1ccc(NC2Cc3ccccc3C2(C)C)cn1)C(F)(F)F` (single isomer, unassigned) [Example 162] the value was 110 nM; for `CN(C(=O)[C@H]1CNC(=O)C1)[C@@H](c1ccc(NC2Cc3ccc(Cl)c(F)c3C2)nc1)C(F)(F)F` (single isomer, unassigned) [Example 338], 960 nM; for `CN(C(=O)C1CCS(=O)(=O)CC1)[C@@H](c1ccc(NC2Cc3ccc(C4CC4)cc3C2)cn1)C(F)(F)F` (single isomer, unassigned) [Example 308], 1400 nM.
For `CN(C(=O)[C@H]1CCC(=O)NC1)[C@@H](c1ccc(NC2Cc3ccc(Cl)c(F)c3C2)cn1)C(F)(F)F` (single isomer, unassigned) [Example 336] the value was 690 nM; for `CN1CCCC(C(=O)N(C)[C@@H](c2ccc(NC3Cc4ccccc4C3(C)C)cn2)C(F)(F)F)C1` (single isomer, unassigned) [Example 128], 400 nM; for `CN(C(=O)C1CN2CCC1CC2)[C@@H](c1ccc(NC2Cc3ccccc3C2(C)C)nc1)C(F)(F)F` (single isomer, unassigned) [Example 121], 510 nM.
`CN(C(=O)C1CN(C(=O)C2CCO2)C1)[C@@H](c1ccc(NC2Cc3ccc(Cl)c(F)c3C2)cn1)C(F)(F)F` (single isomer, unassigned) [Example 385] had an IC50 of 130 nM.
In turn, `CN(C(=O)C1CN(C(=O)C2CCO2)C1)[C@@H](c1ccc(NC2Cc3ccc(Cl)c(F)c3C2)cn1)C(F)(F)F` (single isomer, unassigned) [Example 386] displayed an IC50 of 2670 nM.
Then `CC(=O)N[C@H]1CC[C@@H](C(=O)N(C)[C@@H](c2ccc(N[C@@H]3Cc4ccccc4C3(C)C)cn2)C(F)(F)F)C1` [Example 204, (1R,3S)-3-Acetamido-N—((S)-1-(5-(((R)-1,1-dimethyl-2,3-dihydro-1H-inden-2-yl)amino)pyridin-2-yl)-2,2,2-trifluoroethyl)-N-methylcyclopentane-1-carboxamide], with 220 nM.
For `CN(C(=O)CO)[C@@H](c1ccc(NC2Cc3ccc(Cl)c(F)c3C2)cn1)C(F)(F)F` (single isomer, unassigned) [Example 366] the value was 3660 nM; for `CN1CCCC(C(=O)N(C)[C@@H](c2ccc(NC3Cc4ccccc4C3(C)C)cn2)C(F)(F)F)C1` (single isomer, unassigned) [Example 131], 260 nM.
In turn, `CN(C(=O)[C@H]1CNC(=O)C1)[C@@H](c1ccc(NC2Cc3ccc(Cl)c(Cl)c3C2)nc1)C(F)(F)F` (single isomer, unassigned) [Example 346] showed an IC50 of 1100 nM.
For `CN(C(=O)C1CCS(=O)(=O)CC1)[C@@H](c1ccc(NC2Cc3cc(F)c(F)c(F)c3C2)cn1)C(F)(F)F` (single isomer, unassigned) [Example 296] the value was 1400 nM.
For `CN(C(=O)C1CCNCC1)[C@@H](c1ccc(NC2Cc3ccccc3C2(C)C)nc1)C(F)(F)F` (single isomer, unassigned) [Example 149] the value was 240 nM; for `CN(C(=O)C1CCS(=O)(=O)CC1)[C@@H](c1ccc(NC2Cc3ccc(Cl)c(C(F)(F)F)c3C2)cn1)C(F)(F)F` (single isomer, unassigned) [Example 311], 300 nM.
For `CN(C(=O)C1CCS(=O)(=O)CC1)[C@@H](c1ccc(NC2Cc3cc(Cl)c(OC(F)F)cc3C2)cn1)C(F)(F)F` (stereo partly drawn) [Example 291, N-((1S)-1-(5-((5-Chloro-6-(difluoromethoxy)-2,3-dihydro-1H-inden-2-yl)amino)pyridin-2-yl)-2,2,2-trifluoroethyl)-N-methyltetrahydro-2H-thiopyran-4-carboxamide 1,1-dioxide] the value was 340 nM; for `Cc1nnc(N2CC(C(=O)N(C)[C@@H](c3ccc(NC4Cc5ccc(Cl)c(F)c5C4)cn3)C(F)(F)F)C2)o1` (single isomer, unassigned) [Example 365], 3640 nM.
For the molecule `CC(=O)N1CCC[C@@H]1C(=O)N(C)[C@@H](c1ccc(N[C@H]2Cc3ccccc3C2(C)C)cn1)C(F)(F)F` [Example 171, (R)-1-Acetyl-N—((S)-1-(5-(((S)-1,1-dimethyl-2,3-dihydro-1H-inden-2-yl)amino)pyridin-2-yl)-2,2,2-trifluoroethyl)-N-methylpyrrolidine-2-carboxamide], the IC50 stood at 210 nM.
Take `CN(C(=O)C1CN(C(=O)C2CCOC2)C1)[C@@H](c1ccc(NC2Cc3ccc(Cl)c(Cl)c3C2)cn1)C(F)(F)F` (single isomer, unassigned) [Example 354]: the IC50 is 1000 nM.
Molecule `CN(C(=O)CN1CC(=O)NC1=O)[C@@H](c1ccc(NC2Cc3ccccc3C2(C)C)cn1)C(F)(F)F` (single isomer, unassigned) [Example 213] returned a half-maximal inhibitory concentration (IC50) of 500 nM.
Turning to `CC(C)c1c(Cl)ccc2c1CC(Nc1ccc([C@H](N(C)C(=O)C3CCS(=O)(=O)CC3)C(F)(F)F)nc1)C2` (stereo partly drawn) [Example 369, N-((1S)-1-(5-((5-Chloro-4-isopropyl-2,3-dihydro-1H-inden-2-yl)amino)pyridin-2-yl)-2,2,2-trifluoroethyl)-N-methyltetrahydro-2H-thiopyran-4-carboxamide 1,1-dioxide], half-maximal inhibition (IC50) was put at 72 nM.
Then `CN(C(=O)C1CCS(=O)(=O)CC1)[C@@H](c1ccc(NC2Cc3cc(F)cc(Cl)c3C2)cn1)C(F)(F)F` (single isomer, unassigned) [Example 287], with 290 nM; and `CN(C(=O)C1CCS(=O)(=O)CC1)[C@@H](c1ccc(NC2Cc3cccc(F)c3C2)cn1)C(F)(F)F` (single isomer, unassigned) [Example 274], with 280 nM.
Then `CN(C(=O)C1CN2CCC1CC2)[C@@H](c1ccc(NC2Cc3ccccc3C2(C)C)nc1)C(F)(F)F` (single isomer, unassigned) [Example 120], with 770 nM; and `CN(C(=O)C1C2CS(=O)(=O)CC21)[C@@H](c1ccc(NC2Cc3ccccc3C2(C)C)cn1)C(F)(F)F` (single isomer, unassigned) [Example 214], with 320 nM; and `CN(C(=O)[C@H]1C[C@@]2(COC(=O)N2)C1)[C@@H](c1ccc(NC2Cc3ccccc3C2(C)C)cn1)C(F)(F)F` (single isomer, unassigned) [Example 207], with 120 nM.
For `CN(C(=O)C1CCS(=O)(=O)CC1)[C@@H](c1ccc(NC2Cc3ccc(F)cc3C2)cn1)C(F)(F)F` (single isomer, unassigned) [Example 258] the value was 4500 nM; for `CN(C(=O)C1CCS(=O)(=O)CC1)[C@@H](c1ccc(NC2Cc3ccc(Cl)c(Cl)c3C2)nc1)C(F)(F)F` (single isomer, unassigned) [Example 344], 310 nM.
Take `CN(C(=O)C1CNC(=O)CO1)[C@@H](c1ccc(NC2Cc3ccccc3C2(C)C)cn1)C(F)(F)F` (single isomer, unassigned) [Example 135]: the 50% inhibitory concentration (IC50) was 450 nM.
In the case of `CN(C(=O)C1CCS(=O)(=O)C1)[C@@H](c1ccc(NC2Cc3ccc(Cl)c(Cl)c3C2)cn1)C(F)(F)F` (single isomer, unassigned) [Example 359], the IC50 came to 480 nM.
With `CN(C(=O)C1CCS(=O)(=O)CC1)[C@@H](c1ccc(NC2Cc3cc(Cl)cc(Cl)c3C2)cn1)C(F)(F)F` (single isomer, unassigned) [Example 283], it took 910 nM to reach half-maximal inhibition (IC50).
In turn, `CN(C(=O)[C@H]1CCC(=O)NC1)[C@@H](c1ccc(NC2Cc3ccc(Cl)c(Cl)c3C2)cn1)C(F)(F)F` (single isomer, unassigned) [Example 320] gave an IC50 of 750 nM.
